A short description of series [1]: Solubility of peptide for TAP binding test. It is filed as physicochemical. Conditions: could not be tested for TAP binding.
Another series concerns cytoplasmatic peptidase. Conditions: half-life; ref Lazaro et al., 2011; cited from earlier work.

Consider GTTSTLQEQIAW [GW12], for which the solubility result in series [1] is recorded as “insoluble”. As to KAFSPEVIPMF [KF11], the “cytoplasmatic peptidase stability, t1/2” value in the series with cytoplasmatic peptidase is given as 13 s.

Source of the values: paper PMC4005910 (Cell Reports, 2014).
